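Exposure lasted 48 hours, with cells grown in 96-well plates and compounds tested at five concentrations. GI50: concentration for 50% inhibition of growth.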 The source made the active and inactive calls. No stated cut-off is given here; in the data, active = GI50 up to about 1.1 µM and inactive = higher.
What was measured:
Assay in all cases: DTP human tumour cell line panel, 48 h
[1] = test system: SF-268
[2] = test system: SK-OV-3
[3] = test system: RPMI-8226
[4] = test system: A549
[5] = test system: LOX IMVI
[6] = test system: UACC-62
[7] = test system: OVCAR-8
[8] = test system: UO-31
[9] = test system: SNB-19
[10] = test system: MOLT-4
[11] = test system: IGROV-1
[12] = test system: SN12C
[13] = test system: SF-539
[14] = test system: HT-29
[15] = test system: UACC-257
[16] = test system: HOP-62
[17] = test system: COLO 205
[18] = test system: K562
[19] = test system: CCRF-CEM
[20] = test system: KM12

Measured: GI50

COC(=O)N1CC2C3C4CC(C(c5ccccc5)=C4c4ccccc4)C3C21 (stereo not given)
inactive: [1] 16.3 µM | [2] 20 µM | [3] 8.59 µM | [4] 18 µM | [5] 12.2 µM | [6] 13.2 µM | [7] 17.8 µM | [8] 12.8 µM | [9] 21.1 µM | [10] 12.5 µM | [11] 17.5 µM | [12] 17.6 µM | [13] 13.8 µM | [14] 17.1 µM | [15] 13.7 µM | [16] 19.3 µM | [17] 23.1 µM | [18] 6.04 µM | [19] 14.9 µM | [20] 14.6 µM

C=CC1(NC(=O)c2ccccc2)CCC(C(C)(C)C)CC1 (stereo not given)
inactive: [1] 43.2 µM | [2] 80.7 µM | [3] 20.9 µM | [4] 30.5 µM | [5] 20.3 µM | [6] 26.6 µM | [7] 49.7 µM | [8] 22 µM | [9] 30.1 µM | [10] 10.6 µM | [11] 37.6 µM | [12] 35.2 µM | [13] 44.3 µM | [14] 23.9 µM | [15] 26.4 µM | [16] 35.8 µM | [17] 21.7 µM | [18] 30.8 µM | [19] 18.5 µM | [20] 35.2 µM

Source: ChEMBL document CHEMBL1201862, “PubChem BioAssay data set” (2004)
